Data reported in article PMC8684484, “The assessment of Pseudomonas aeruginosa lectin LecA binding characteristics of divalent galactosides using multiple techniques” (Glycobiology, 2021).

Key:
LecA [1] = target: T1, LecA (Pseudomonas aeruginosa, UniProt Q05097); experiment: Affinity capillary electrophoresis (ACE), direct binding, μeff shift of LecA with carbohydrate in BGE
T1 construct: purchased Sigma–Aldrich (Steinheim, Germany)
Method: For affinity studies, two different LecA ligands were used. The first was the carboxylated galactoside (1). This was used as the reference monovalent ligand and its negatively charged carboxylate increases the chances of a protein shift in CE where charges are the important mobility determinant. Furthermore we used the bivalent carbohydrate (2), previously optimized for bivalent binding ([Yu et al. 2019b]). These glycoligands were added to the optimized CE background electrolyte (BGE) and the protein LecA was injected. For KD determination the BGE containing increasing concentrations of carbohydrate 1 or carbohydrate 2 were prepared and used for the analysis of LecA (10 μM). […] For each carbohydrate and each concentration, the difference of the measured μeff of LecA with the μeff acquired without carbohydrate in the BGE, was determined. […]
CE analyses were carried out using an Agilent 7100 instrument (Agilent technologies, USA). […] Ultraviolet detection was performed from 190 nm to 280 nm, but data recorded at 214 nm were used in this study. […]
BGEs containing increasing concentrations of compound 1 and/or compound 2 were prepared at the pH for which μeff shifts were observed and used for KD determination. For each carbohydrate and each studied concentration, the difference of the measured μeff of LecA with the μeff obtained without carbohydrate was determined. […]

LecA [2] = target: T1, LecA; experiment: Fluorescence-based thermal shift assay (TSA), Sypro orange; assay type: binding; settings: ligand 500 μM; for Tm of LecA: no ligand 71.7
Method: As ligand binding is known to shift the melting point of proteins in a ligand concentration dependent manner, we performed the TSA experiments with two different concentrations of LecA (0.5 and 1 mg/mL) containing the fluorescent dye sypro orange. […] Therefore, we selected a fixed concentration of 1 mg/mL for the subsequent experiments. […] Divalent 2 stabilizes LecA by more than 11°C at a concentration of 20 μM (Figure 7).
TSA was performed using a standard real-time PCR instrument. To monitor protein unfolding, the fluorescent dye Sypro orange was used. Sypro orange is an environmentally sensitive dye (Thermo Fischer 5000x in DMSO). The unfolding process exposes the hydrophobic region of proteins and results in a large increase in fluorescence, which is used to monitor the protein-unfolding transition ([Lo et al. 2004]). The TSA was performed with a BioRad CFX96 real-time PCR machine, and analysis for binding induced shifts in thermal transition was performed with Bio-Rad CFX Manager 3.1 Software provided by the manufacturer (BioRad, Hercules, CA, USA).
Galactose based inhibitors specifically bind to the binding pocket of the lectin. Ligands could stabilize LecA (0.5 and 1 mg/mL) upon binding and therefore the protein Tm might increase. The shift in Tm with an addition of the ligand (ΔTm) serves as a qualitative measure of protein stability and allows to determine whether a protein–ligand binding event occurs. We here show the effect of different carbohydrates on the thermal denaturation of LecA. Sypro orange conc, used: 320× from commercial 5000×).

LecA [3] = target: T1, LecA; experiment: Native ESI-MS occupancy of the LecA tetramer; assay type: binding; settings: ligand 600 μM, LecA 10 μM; estimated from MS intensities
Method: At the high concentration of monovalent compound 1 (600 μM) incubated with LecA (10 μM), a varying number of binding pockets of the tetrameric lectin were occupied by the monovalent ligand indicated by four different peaks in close proximity (Figure 8b). At these concentrations, an estimated number of copies of LecA of 8% remains fully unoccupied, 18% has one pocket occupied, 26% has two pockets occupied, 27% has three pockets occupied and 21% is fully occupied. We used the intensity values as determined by mass spectrometry as a proxy of their abundances in solution to calculate the occupancy values, for which previously it was shown that there is good correlation ([Seo et al. 2016]).
At a low (substoichiometric) concentration of divalent compound 2 (2 μM), 3 m/z peaks were observed that correspond to unbound LecA (estimated 6%), LecA bound to one compound 2 (estimated 39%) and LecA bound to two of the divalent ligand 2 (estimated 55%) (Figure 8c). […] As no peaks were detected corresponding to a single or triple binding pockets of the tetrametric lectin, excellent support is provided for the effective divalent binding of our molecule at reasonable concentrations.
To investigate the interaction between LecA and compounds 1 and 2, we incubated these compounds with LecA and transferred the produced complex into a 150 mM ammonium acetate solution (pH 7.5) by applying 10 μM of the protein ligand complex in a ratio of 1:1 on a pre-equilibrated 6-kDa Micro Bio-Spin column (Bio-Rad). The protein was eluted by centrifugation at 1,000 × g and 4°C. MS measurements were performed in positive ion mode using an Electrospray Ionization Time-of-Flight instrument (LC-T; Micromass, Manchester, UK) equipped with a Z-spray nanoelectrospray ionization source. Samples were sprayed from in-house prepared borosilicate glass capillaries (Kwik-Fil; World Precision Instruments, Sarasota, FL) prepared on a P-97 puller (Sutter Instruments, Novato, CA, USA) and coated with a thin layer of gold by using an Edwards Scan coat six Pirani 501 sputter coater (Edwards Laboratories, Milpitas, CA, USA). Instrument settings were adjusted for optimal transmission of high mass ions. A capillary voltage of 1300 V was used, in combination with a sampling cone voltage of 60 V. The source backing pressure was elevated to approximately 6.7 mbar in order to promote collisional cooling. All TOF data were mass calibrated by using an aqueous solution of cesium iodide (25 mg·mL^−1) and interpreted manually using MassLynx software (Waters, version 4.1).

[4] = target: T2, Maclura pomifera Lectin (MPL) (Maclura pomifera, UniProt P18674); experiment: ACE selectivity experiment with MPL as binding competitor; settings: mixture of LecA and MPL; 1 mM of 1 or 20 μM of 2 in BGE
T2 construct: purchased Vector Laboratories (San Francisco, CA, USA)
T2 sequence (P18674 whole entry): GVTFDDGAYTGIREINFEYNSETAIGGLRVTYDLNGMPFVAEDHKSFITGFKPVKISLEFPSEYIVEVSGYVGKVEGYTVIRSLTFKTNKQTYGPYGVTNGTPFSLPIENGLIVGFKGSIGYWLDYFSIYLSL
T2 sequence (P18676 whole entry partner): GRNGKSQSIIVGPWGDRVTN
Method: A mixture of LecA and MPL was analyzed by ACE, and affinity studies were carried out by adding the carbohydrates 1 and 2 to the BGE.
CE analyses were carried out using an Agilent 7100 instrument (Agilent technologies, USA). Bare fused-silica capillaries, with a 100 μm internal diameter, 365 μm outer diameter and a 50 cm total length, were from Biotaq (Gaithersburg, MD, USA). The detection window of the capillary was created at 10 cm from the outlet of the capillary. Hydrodynamic injections were performed at 17 mbar for 4 s, by injecting LecA or MPL (10 μM). The separation voltage was set at −10 kV and the caplillary temperature was maintained at 25°C during analysis. Ultraviolet detection was performed from 190 nm to 280 nm, but data recorded at 214 nm were used in this study. The BGE for the analysis of the lectins was potassium phosphate prepared by dissolving the appropriate amount of compounds in water and adjusting the pH with a sodium hydroxide solution. Capillaries were coated with Ultra Trol LN. Stable currents of 45 μA were observed during the affinity measurements with optimum buffer conditions (25 mM KH2PO4 at pH 7).
In order to study the affinity of LecA toward inhibitors, LecA was injected and carbohydrate inhibitors were added to the BGEs. BGEs were prepared containing 1 mM of compound 1, 20 μM of compound 2, or without carbohydrate. […]

LecA [5] = target: T1, LecA; experiment: Bio-layer interferometry (BLI), biotinylated ligand on streptavidin sensor; assay type: binding; settings: immobilized ligand
Method: (§1) The biotinylated galactoside 3 (Figure 5) was immobilized on a streptavidin coated sensor. […] This is likely due to the well-known low affinity of monovalent ligands for most lectins even though the presentation of the ligand on the chip was also multivalent, but apparently not matching the distances between binding sites. Next, the binding properties of the divalent biotinylated 4 with the mentioned lectins were evaluated. […] Indeed, during the dissociation step, the signal only partially decreases down to the baseline and this lack of full dissociation indicates high affinity. Using this setup, kinetic parameters of the interaction were determined for the divalent galactoside to evaluate whether the divalent binding mode of this ligand influences the lectin–ligand kinetics. By fitting the sensorgrams with a global model ([…]), association (ka or kon) and dissociation (kd or koff) constants were determined and the KD was calculated from the ratio of kd over the ka while the residence time (τ) was derived from 1/kd. […] The same was true for compound 4 and lectins MPL and JIL.
(§2) BLI measurements were carried out using an Octet RED 384 instrument (ForteBio). Biosensors were transferred into fresh assay buffer for 180 s to collect a baseline read. Compound 3 and compound 4 were immobilized on streptavidin (SA)-functionalized biosensors to maximum levels by incubation for 900 s at 1 μM ([Guo et al. 2018]). For each set of biosensors, an 180 s baseline in buffer alone was acquired followed by an 1800 s association step and an 1800 s dissociation step. All experiments were carried out using PBS (10 mM phosphate, 150 mM NaCl, pH 7.4) as the assay buffer at 298 K. Data were processed and analyzed and KD values were determined using the global fitting procedures as implemented in Octet® system Data Analysis Software 9.0.0.48 (Pall ForteBio LLC, Menlo Park, CA, USA). Kinetic responses were fitted to a 1-site binding model to obtain values for association (kon) and dissociation (koff) rate constants. The KD derived from kinetic fitting was calculated as koff/kon.

MPL = target: T3, MPL (Maclura pomifera, UniProt P18674); experiment: as above; assay type: binding; settings: immobilized ligand
T3 construct: purchased Vector Laboratories (San Francisco, CA, USA)
T3 sequence (P18674 whole entry): as the sequence (P18674 whole entry) above
Method: as §1, §2

JIL (Jacalin lectin) = target: T4, JIL (Jacalin lectin) (Artocarpus integer, UniProt P18670); experiment: as above; assay type: binding, Jackfruits; settings: immobilized ligand
T4 construct: purchased Sigma–Aldrich (Steinheim, Germany)
T4 sequence (P18670 whole entry): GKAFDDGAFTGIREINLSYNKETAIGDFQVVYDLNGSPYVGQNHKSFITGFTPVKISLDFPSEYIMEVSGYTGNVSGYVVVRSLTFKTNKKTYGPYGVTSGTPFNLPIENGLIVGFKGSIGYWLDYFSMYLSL
T4 sequence (P18673 whole entry, further chain): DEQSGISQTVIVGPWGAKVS
Method: as §1
BLI measurements were carried out using an Octet RED 384 instrument (ForteBio). Biosensors were transferred into fresh assay buffer for 180 s to collect a baseline read. […] The KD derived from kinetic fitting was calculated as koff/kon.

T1 sequence (Q05097 2-122): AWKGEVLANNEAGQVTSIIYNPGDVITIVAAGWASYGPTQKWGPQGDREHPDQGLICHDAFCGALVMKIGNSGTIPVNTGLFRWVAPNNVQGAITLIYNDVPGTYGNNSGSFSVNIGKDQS

SMILES: O=C(O)CO[C@@H]1O[C@H](CO)[C@H](O)[C@H](O)[C@H]1O [Compound 1]
- Kd (LecA [1]): 27 µM
- μeff shift of LecA with carbohydrate in BGE (LecA [1]; mixture of LecA and MPL, 1 mM of 1 or 20 μM of 2 in BGE): sizeable shift
- Tm of LecA (LecA [2]): 74.0 °C
- LecA fully occupied (LecA [3]): 21%
- LecA fully unoccupied (LecA [3]): 8%
- LecA with one pocket occupied (LecA [3]): 18%
- LecA with three pockets occupied (LecA [3]): 27%
- LecA with two pockets occupied (LecA [3]): 26%
- μeff shift of MPL with carbohydrate in BGE [4]: sizeable shift

SMILES: O=C(CCCC[C@@H]1SC[C@@H]2NC(=O)N[C@@H]21)NCCCCCC(=O)NCCCO[C@@H]1O[C@H](CO)[C@H](O)[C@H](O)[C@H]1O [Compound 3]
- BLI signal (LecA [5]; LecA at 1 μM): no detectable signal
- BLI association and dissociation (LecA [5]; LecA up to 10 μM): no significant association and dissociation phenomena
- BLI signal (MPL; MPL at 1 μM): no detectable signal
- BLI association and dissociation (MPL; MPL up to 10 μM): no significant association and dissociation phenomena
- BLI signal (JIL (Jacalin lectin); JIL at 1 μM): no detectable signal
- BLI association and dissociation (JIL (Jacalin lectin); JIL up to 10 μM): no significant association and dissociation phenomena

SMILES: OC[C@H]1OC(O)[C@@H](O)[C@@H](O)[C@@H]1O (stereo partly drawn) [D-Mannose, D-mannose]
- stabilization of LecA (ΔTm) (LecA [2]; LecA 1 mg/mL): did not stabilize LecA at all
- Tm of LecA (LecA [2]): 71.7 °C
